Tested on: dermal fibroblasts
Assay: Hyaluronic acid (HA) production in dermal fibroblasts (ELISA)
Type: cell-based, human
Details: 10 ng/mL T-PDGFa or PDGFa, two days; control = 100
Procedure: (§1) Specifically, dermal fibroblasts were inoculated onto a 24-well plate and cultured for 24 hours to obtain cultures having a saturation degree of 70 to 80%. The cultures were washed with PBS and cultured in a serum-free DMEM medium including 10 ng/mL T-PDGFa or PDGFa for two days. A supernatant was obtained therefrom and the amount of hyaluronic acid (HA) produced and released in the culture solution was quantitively analyzed using an ELISA kit (R&D Systems) (Table 5).
as §1, with “The cultures were washed with PBS and cultured in a serum-free DMEM medium including 10 ng/mL T-PDGFa or PDGFa for two days.” left out, “9).” for “5).”

PDGFa: platelet-derived growth factor subunit a having an amino acid sequence of SEQ ID NO: 35
Production (%) of hyaluronic acid (HA): 897 ± 30%

Reference: patent US20200165312A1, “COSMETIC COMPOSITION FOR IMPROVING SKIN CONDITIONS COMPRISING FUSION PROTEIN INCLUDING SKIN PENETRATION ENHANCING PEPTIDE” (LG HOUSEHOLD & HEALTH CARE LTD., priority 2017, published 2020)
